Test results from patent US9206136B2, “Pyrazolyl-based carboxamides I” (Grünenthal GmbH, priority 2013, dated 2015).

Assays:
[1] = target: T1, CRAC channel (endogenous SOC in HEK293 cells) (Homo sapiens, UniProt Q96D31); experiment: HEK Calcium Influx Assay (FLIPR); type: cell-based; conditions: 10 μM compound, thapsigargin store depletion, Ca2+ signal 9.5-10 min post-administration, read-out: % inhib. [@ 10 μM] FLIPR
T1 construct: host or cells: HEK293
Experimental: Compounds of the invention have been tested for their effects on CRAC channels according to the following or similar procedures.
The effect of compounds of the invention on intracellular [Ca^2+] was tested in the HEK293 cell line (ECACC).
HEK293 cells were cultured in DMEM/F12/Glutamax (Gibco) containing 10% FCS (Gibco), and maintained at 37° C., 5% CO2. Cell were split twice a week [3·10^6 (Mon-Thu) and 1·10^6 (Thu-Mon) cells/50 ml medium in T-175 ZK culture flasks, respectively]. 24 hours pre-experiment, cells were seeded on 96 well plates (Poly-D-Lysine 96well Black/Clear Plate, BD Biocoat REF 356640) at a density of 40,000 cells/well in DMEM/F12 (Gibco) containing 10% FCS (Gibco), and maintained at 37° C., 5% CO2.
Prior to store-depletion, cell culture medium was removed and cells were loaded with the a Ca^2+-sensitive fluorescent dye comprised within the Calcium-4-assay kit (Molecular Devices) in nominally Ca^2+-free HBS buffer (140 mM NaCl, 4 mM KCl, 0.2 mM MgCl2, 11 mM D-glucose, and 10 mM HEPES, pH 7.4) according to manufacturer's instruction for 60 min at 37° C., 5% CO2.
Passive depletion of intracellular Ca^2+-stores was then triggered by employing the SERCA inhibitor thapsigargin (2 μM final) for 10 min in the dark (rt). To prevent immediate Ca^2+-entry via the activated Store-operated channels (SOCs), cells were maintained in Ca^2+-free HBS buffer comprising 100 μM EGTA during store-depletion.
Intracellular changes in [Ca^2+] were subsequently monitored with the FLIPR device (Molecular Devices). In brief, baseline imaging post-store depletion was allowed for 1 min before adjusting the extracellular buffer to 3 mM CaCl2. Increases in intracellular [Ca^2+] due to pre-activated SOC channels were monitored for 15 min until intracellular Ca^2+ levels had declined into a steady-state. Finally, compounds were administered and Ca^2+ signals were recorded for additional 10 min.
Inhibition of endogenous SOC in HEK293 cells was quantified employing the average Ca^2+ signal measured from 9.5-10 min post-administration. Zero percent inhibition (MAX) was defined as the Ca^2+ signal recorded from wells to which DMSO-only had been added instead of compound. Hundred percent inhibition (MIN) was defined as the signal obtained from wells in which cells haven't been treated with TG prior to Ca^2+ addition and to which DMSO-only had been added instead of compound. For routine IC50 determinations of compounds, 8 concentrations of a serial dilution (1:3.16) were tested, starting off from 10 μM. Reliable IC50's could consequently be determined only, if they were at least sub 2.5-3 μM.

[2] = tested on: Interleukin-2 (IL-2) production/release in Jurkat T cell line clone E6-1; experiment: Jurkat IL-2 Production Assay; type: cell-based; conditions: Homo sapiens; Jurkat T cells stimulated with 15 μg/ml PHA for 22 hours; IL-2 in supernatant (AlphaLisa)
Experimental: Jurkat IL-2 Production Assay
The effect of compounds of the invention on Interleukin-2 (IL-2) production/release was tested in the Jurkat T cell line (ECACC) clone E6-1.
Jurkat T cells were cultured in DMEM/F12/Glutamax (Gibco) containing 10% FCS (Gibco), and maintained at 37° C., 5% CO2. Cells were split twice a week [5·10^6 (Mon-Thu) and 1·10^7 (Thu-Mon) cells/50 ml medium in T-175 ZK culture flasks, respectively].
Prior to experiment, cells were seeded on 96 well plates (Cellstar 96 Well; Cat No. 655180, Greiner bio-one) at a density of 5·10^5 cells/well in DMEM/F12/Glutamax (Gibco) containing 10% FCS (Gibco), and incubated for 60 min at 37° C., 5% CO2. Subsequently, compounds were added and cells were allowed to incubate for 30 min at 37° C., 5% CO2. Cells were then stimulated with 15 μg/ml Phyto-hemagglutinin (PHA; Sigma) for 22 hours at 37° C., 5% CO2.
Before sampling of the supernatants, cells were spun down (200*g/5 min/RT). The amount of IL-2 released into the supernatant was quantified with the human IL-2 AlphaLisa kit (Perkin Elmer) according to manufacturer's instructions. Luminescence proximity measurements were carried out in the Synergy H4 reader (BioTek) employing the fluorescence setting of the reader (ex: 680/30 nm; em: 620/40 nm).
Inhibition of IL-Production/Release in/from Jurkat T Cells Cells was Quantified as Follows:
Zero percent inhibition (MAX) was defined as the [IL-2] determined in supernatants derived from cells to which PHA & DMSO-only had been added instead of compound. Hundred percent inhibition (MIN) was defined as the [IL-2] determined in supernatants derived from cells that had been pre-treated with 1 μM CyclosporineA (Sigma) before the addition of 15 μg/ml PHA.
For routine IC50 determinations of compounds, 8 concentrations of a serial dilution (1:3.16) were tested, starting off from 10 μM.

T1 sequence (Q96D31 whole entry): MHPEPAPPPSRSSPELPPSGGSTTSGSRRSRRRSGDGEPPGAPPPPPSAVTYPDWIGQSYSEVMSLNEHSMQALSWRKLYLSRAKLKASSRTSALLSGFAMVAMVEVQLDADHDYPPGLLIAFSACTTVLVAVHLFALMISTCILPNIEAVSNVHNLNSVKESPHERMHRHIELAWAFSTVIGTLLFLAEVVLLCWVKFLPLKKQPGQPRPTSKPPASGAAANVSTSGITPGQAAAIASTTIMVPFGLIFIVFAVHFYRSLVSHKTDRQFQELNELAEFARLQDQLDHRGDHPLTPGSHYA

Row | Compound | inhibition at 10 µM [1] | IC50 [2]
1 | COc1ccc(-c2nccs2)cc1-c1c(N)c(C(=O)Nc2c(F)cccc2F)nn1C [Example 44, 4-Amino-N-(2,6-difluoro-phenyl)-5-(2-methoxy-5-thiazol-2-yl-phenyl)-1-methyl-1H-pyrazole-3-carboxylic acid amide] | < 50% | 1 to 5 µM
2 | COc1ccc(-c2ncco2)cc1-c1c(N)c(C(=O)Nc2c(F)cncc2F)nn1C [Example 45, 4-amino-N-(3,5-difluoropyridin-4-yl)-5-(2-methoxy-5-(oxazol-2-yl)phenyl)-1-methyl-1H-pyrazole-3-carboxamide] | < 50% | 1 to 5 µM
3 | COc1ccc(-c2ncco2)cc1-c1c(N)c(C(=O)Nc2c(F)cccc2F)nn1C [Example 46, 4-amino-N-(2,6-difluorophenyl)-5-(2-methoxy-5-(oxazol-2-yl)phenyl)-1-methyl-1H-pyrazole-3-carboxamide] | < 50% | 1 to 5 µM
4 | COc1ccc(-c2nccs2)cc1-c1c(N)c(C(=O)Nc2c(F)cncc2F)nn1C [Example 47, 4-amino-N-(3,5-difluoropyridin-4-yl)-5-(2-methoxy-5-(thiazol-2-yl)phenyl)-1-methyl-1H-pyrazole-3-carboxamide] | < 50% | 1 to 5 µM
5 | COc1ccc(C2=NOC(C)(C)C2=O)cc1-c1cc(C(=O)Nc2c(F)cccc2F)nn1C [Example 48] | < 50% | 0.5 to 1 µM
6 | Cn1nc(C(=O)Nc2c(F)cccc2F)c(N)c1-c1cc(-c2ncco2)ccc1OC(F)(F)F [Example 49, 4-amino-N-(2,6-difluorophenyl)-1-methyl-5-(5-(oxazol-2-yl)-2-(trifluoromethoxy)phenyl)-1H-pyrazole-3-carboxamide] | 50 to 70% | 0.5 to 1 µM
7 | Cn1nc(C(=O)Nc2c(F)cncc2F)c(N)c1-c1cc(-c2ncco2)ccc1OC(F)(F)F [Example 50, 4-amino-N-(3,5-difluoropyridin-4-yl)-1-methyl-5-(5-(oxazol-2-yl)-2-(trifluoromethoxy)phenyl)-1H-pyrazole-3-carboxamide] | < 50% | 1 to 5 µM
